According to ChEMBL document CHEMBL3045364, “Synthesis, structure, and estrogenic activity of 2- and 3-substituted 2,3-dihydro-4H-1-benzopyran-4-ones” (2013):
Calls of active or inactive are those of the source. The calls are words filed in the database; no cut-off is given here.

What was measured:
[1] = target: T1, Estrogen receptor (Homo sapiens) (UniProt P03372); test: Displacement of [3H]E2 from Homo sapiens (human) recombinant ER-alpha by HAP binding assay
T1 sequence (whole entry): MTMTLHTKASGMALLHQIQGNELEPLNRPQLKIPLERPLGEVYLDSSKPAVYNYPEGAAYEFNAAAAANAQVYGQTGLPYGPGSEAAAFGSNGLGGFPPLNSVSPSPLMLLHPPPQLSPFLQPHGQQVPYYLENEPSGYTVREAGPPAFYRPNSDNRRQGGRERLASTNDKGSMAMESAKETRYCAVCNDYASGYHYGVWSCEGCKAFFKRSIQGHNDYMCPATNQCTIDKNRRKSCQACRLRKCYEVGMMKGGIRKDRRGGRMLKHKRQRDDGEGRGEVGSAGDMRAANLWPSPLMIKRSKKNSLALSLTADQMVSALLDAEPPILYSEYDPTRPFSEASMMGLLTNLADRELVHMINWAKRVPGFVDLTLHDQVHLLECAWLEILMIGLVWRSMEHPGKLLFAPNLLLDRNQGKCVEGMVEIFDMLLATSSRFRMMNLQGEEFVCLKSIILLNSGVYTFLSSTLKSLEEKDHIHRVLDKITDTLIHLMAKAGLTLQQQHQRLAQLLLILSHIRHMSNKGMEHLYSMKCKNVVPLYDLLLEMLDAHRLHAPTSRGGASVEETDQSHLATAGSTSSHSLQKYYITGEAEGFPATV

[2] = test system: MVLN; test: Estrogenic activity in Homo sapiens (human) MVLN cells assessed as induction of ERE-dependent transcription at 10 uM after 24 hr by luciferase reporter gene assay in presence of 0.1 uM antiestrogen, fulvestrant; type: functional, cell-based
[3] = test system: MVLN; test: Estrogenic activity in Homo sapiens (human) MVLN cells assessed as induction of ERE-dependent transcription at 10 uM after 24 hr by luciferase reporter gene assay; type: functional, cell-based
[4] = test system: MVLN; test: Estrogenic activity in Homo sapiens (human) MVLN cells assessed as induction of ERE-dependent transcription at 1 uM after 24 hr by luciferase reporter gene assay; type: functional

Row | SMILES | inhibition [1] | Activity [2] | Activity [3] | Activity [4]
1 | O=C1/C(=C/c2ccc(O)cc2)COc2ccccc21 | inactive | inactive | Active | 236%
2 | O=C1CC2(CCCCC2)Oc2cc(O)ccc21 | inactive | inactive | Active | 279%
3 | COc1ccc2c(c1)OC1(CCCCC1)CC2=O | inactive | – | – | inactive
4 | Cc1ccc(/C=C2\COc3ccccc3C2=O)cc1 | inactive | – | – | –
5 | COc1ccc2c(c1)OC1(CCC(c3ccccc3)CC1)CC2=O (stereo not drawn) | inactive | – | – | –
6 | COc1cccc(/C=C2\COc3ccccc3C2=O)c1 | inactive | inactive | Active | 243%
7 | COc1cc(OC)c(/C=C2\COc3ccccc3C2=O)c(OC)c1 | inactive | – | – | 134%
8 | COc1ccc2c(c1)OC1(CCC(C(C)(C)C)CC1)CC2=O (stereo not drawn) | inactive | – | – | –
9 | O=C1/C(=C/c2ccccc2)COc2ccccc21 | inactive | – | – | inactive
10 | CN(C)c1ccc(/C=C2\COc3ccccc3C2=O)cc1 | inactive | – | – | 145%
